This note sets out measurements from US8399399B2, “3- and 4-methyl dodecenal and their use in fragrance and flavour compositions” (Givaudan SA, priority 2005, dated 2013).

The nature of this test: Determination of GC-odour threshold concentration (gas chromatograph with sniff port, panel of trained evaluators). As to conditions: for odour threshold of the (Z)-isomer compared to its corresponding (E)-isomer (times higher): pure (Z)-isomer versus pure (E)-isomer; for odour threshold concentration, geometric mean: GC sniff port, absolute amount of compound delivered at the sniff port, group of 5 panelists, identical conditions. The procedure: The odour threshold concentration is defined as the lowest concentration of the vapour of an odourant material in the air which can be detected by smell and can be measured by standard methods known in the art.
According to standard procedures known to the person skilled in the art, threshold concentrations for volatile perfumery compounds are determined on a gas chromatograph equipped with a sniff port by a panel of trained evaluators. The lowest concentration smelled by each panellist is recorded as the individual threshold concentration expressed in ng (absolute amount of compound delivered at the sniff port).
Under identical conditions the odour threshold concentration for (E)-2-methyl-4-dodecenal (prior art), (E)-3-methyl-4-dodecenal and (E)-4-methyl-4-dodecenal was measured and compared by a group of 5 panelists.

In the case of `CCCCCCC/C=C\C(C)CC=O` (centres unmarked) [(Z)-3-methyl-4-dodecenal], the “odour threshold of the (Z)-isomer compared to its corresponding (E)-isomer (times higher)” value is 5 times.
The same measure, in the same setting: next, `CCCCCCC/C=C(/C)CCC=O` [(Z)-4-methyl-4-dodecenal, (Z)-4-Methyl-4-dodecenal]: 20 times.
For `CCCCCCC/C=C/CC(C)C=O` (centres unmarked) [(E)-2-methyl-4-dodecenal, reference compound], the “odour threshold concentration, geometric mean” value was 3.2 ng.
Still for that read-out and setting: in the case of `CCCCCCC/C=C/C(C)CC=O` (centres unmarked) [(E)-3-methyl-4-dodecenal] it was 1.0 ng; in that of `CCCCCCC/C=C(\C)CCC=O` [(E)-4-methyl-4-dodecenal, (E)-4-Methyl-4-dodecenal], 0.05 ng.
